Measurements published in ChEMBL document CHEMBL1147177, “Identification of tyrosinase inhibitors from Marrubium velutinum and Marrubium cylleneum” (Bioorg Med Chem, 2007).

Key:
[1] = biological target: T1, Tyrosinase (Agaricus bisporus) (UniProt O42713); test: Inhibition of diphenolase activity of mushroom tyrosinase at 0.051 mM
T1 sequence (whole entry): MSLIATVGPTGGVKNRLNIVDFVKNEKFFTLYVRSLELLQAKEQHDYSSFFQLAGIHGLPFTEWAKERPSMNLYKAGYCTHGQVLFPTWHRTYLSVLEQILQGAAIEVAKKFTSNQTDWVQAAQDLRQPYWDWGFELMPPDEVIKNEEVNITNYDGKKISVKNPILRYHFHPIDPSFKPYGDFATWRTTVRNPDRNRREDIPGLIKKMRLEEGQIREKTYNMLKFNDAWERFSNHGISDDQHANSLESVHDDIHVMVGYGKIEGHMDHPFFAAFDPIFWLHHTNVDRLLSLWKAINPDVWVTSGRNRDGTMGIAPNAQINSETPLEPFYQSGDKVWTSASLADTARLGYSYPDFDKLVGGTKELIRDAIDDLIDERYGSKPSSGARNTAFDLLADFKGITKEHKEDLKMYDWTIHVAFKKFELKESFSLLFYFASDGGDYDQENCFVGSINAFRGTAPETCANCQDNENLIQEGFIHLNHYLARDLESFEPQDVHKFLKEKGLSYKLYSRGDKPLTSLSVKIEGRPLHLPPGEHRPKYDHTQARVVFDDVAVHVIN

[2] = biological target: T1, Tyrosinase (Agaricus bisporus); test: Inhibition of diphenolase activity of mushroom tyrosinase at 0.055 mM
[3] = biological target: T1, Tyrosinase (Agaricus bisporus); test: Inhibition of diphenolase activity of mushroom tyrosinase at 0.064 mM
[4] = biological target: T1, Tyrosinase (Agaricus bisporus); test: Inhibition of diphenolase activity of mushroom tyrosinase at 0.041 mM
[5] = biological target: T1, Tyrosinase (Agaricus bisporus); test: Inhibition of diphenolase activity of mushroom tyrosinase at 0.056 mM
[6] = biological target: T1, Tyrosinase (Agaricus bisporus); test: Inhibition of diphenolase activity of mushroom tyrosinase at 0.011 mM
[7] = biological target: T1, Tyrosinase (Agaricus bisporus); test: Inhibition of diphenolase activity of mushroom tyrosinase at 0.053 mM
[8] = biological target: T1, Tyrosinase (Agaricus bisporus); test: Inhibition of diphenolase activity of mushroom tyrosinase at 0.042 mM
[9] = biological target: T1, Tyrosinase (Agaricus bisporus); test: Inhibition of diphenolase activity of mushroom tyrosinase at 0.049 mM
[10] = biological target: T1, Tyrosinase (Agaricus bisporus); test: Inhibition of diphenolase activity of mushroom tyrosinase at 0.034 mM
[11] = biological target: T1, Tyrosinase (Agaricus bisporus); test: Inhibition of diphenolase activity of mushroom tyrosinase at 0.074 mM
[12] = biological target: T1, Tyrosinase (Agaricus bisporus); test: Inhibition of diphenolase activity of mushroom tyrosinase at 0.044 mM
[13] = biological target: T1, Tyrosinase (Agaricus bisporus); test: Inhibition of diphenolase activity of mushroom tyrosinase at 0.036 mM
[14] = biological target: T1, Tyrosinase (Agaricus bisporus); test: Inhibition of diphenolase activity of mushroom tyrosinase at 0.035 mM
[15] = biological target: T1, Tyrosinase (Agaricus bisporus); test: Inhibition of diphenolase activity of mushroom tyrosinase at 0.231 mM
[16] = biological target: T1, Tyrosinase (Agaricus bisporus); test: Inhibition of diphenolase activity of mushroom tyrosinase at 0.070 mM
[17] = biological target: T1, Tyrosinase (Agaricus bisporus); test: Inhibition of diphenolase activity of mushroom tyrosinase at 0.052 mM
[18] = biological target: T1, Tyrosinase (Agaricus bisporus); test: Inhibition of diphenolase activity of mushroom tyrosinase at 0.050 mM
[19] = biological target: T1, Tyrosinase (Agaricus bisporus); test: Inhibition of diphenolase activity of mushroom tyrosinase at 0.083 mM
[20] = biological target: T1, Tyrosinase (Agaricus bisporus); test: Inhibition of diphenolase activity of mushroom tyrosinase at 0.093 mM

## O=c1c(O)c(-c2ccc(O)c(O)c2)oc2cc(O)cc(O)c12
[1]
  inhibition: 49.7%

## C[C@H]1O[C@H](OC[C@H]2O[C@@H](Oc3c(-c4ccc(O)cc4)oc4cc(O)c(O)c(O)c4c3=O)[C@H](O)[C@@H](O)[C@@H]2O)[C@@H](O)[C@@H](O)[C@@H]1O
[2]
  inhibition: 27.1%

## COc1cc([C@@H]2OC[C@@H](Cc3ccc(O[C@H]4O[C@@H](CO)[C@H](O)[C@@H](O)[C@@H]4O)c(OC)c3)[C@H]2CO)ccc1O
[3]
  inhibition: 12.3%

## O=C(O)/C=C/c1ccc(O)cc1
[4]
  inhibition: 8.87%

## O=C(/C=C/c1ccc(O)cc1)OC[C@H]1O[C@@H](Oc2c(-c3ccc(O)cc3)oc3cc(O)cc(O)c3c2=O)[C@H](O)[C@@H](O)[C@@H]1O
[5]
  inhibition: 30.2%
[6]
  inhibition: 14.7%

## O=c1cc(-c2ccc(O)cc2)oc2c(O)c(O)c(O)c(O)c12
[2]
  inhibition: 5.21%

## COc1cc(-c2oc3cc(O)cc(O)c3c(=O)c2O[C@@H]2O[C@H](COC(=O)/C=C/c3ccc(O)cc3)[C@@H](O)[C@H](O)[C@H]2O)ccc1O
[7]
  inhibition: 21.1%

## COc1ccc(-c2cc(=O)c3c(O)c(O)c(OC)cc3o2)cc1
[7]
  inhibition: 2.78%

## C[C@H]1O[C@H](O[C@@H]2[C@@H](O)[C@H](OCCc3ccc(O)c(O)c3)O[C@H](CO[C@H]3O[C@@H](CO)[C@H](O)[C@@H](O)[C@@H]3O)[C@H]2OC(=O)/C=C/c2ccc(O)c(O)c2)[C@@H](O)[C@@H](O)[C@@H]1O
[8]
  inhibition: 17.5%

## COc1cc(C[C@@H]2CO[C@@H](c3ccc(O[C@H]4O[C@@H](CO)[C@H](O)[C@@H](O)[C@@H]4O)c(OC)c3)[C@@H]2CO)ccc1O[C@H]1O[C@@H](CO)[C@H](O)[C@@H](O)[C@@H]1O
[9]
  inhibition: 11.1%

## COc1ccc(CCO[C@@H]2O[C@H](CO[C@H]3O[C@@H](CO)[C@H](O)[C@@H](O)[C@@H]3O)[C@@H](OC(=O)/C=C/c3ccc(O)c(OC)c3)[C@H](O[C@H]3O[C@H](C)[C@@H](O)[C@H](O)[C@@H]3O)[C@H]2O)cc1O
[4]
  inhibition: 22.6%

## C[C@H]1O[C@H](O[C@@H]2[C@@H](O)[C@H](O)O[C@H](CO)[C@H]2OC(=O)/C=C/c2ccc(O)c(O)c2)[C@@H](O)[C@@H](O)[C@@H]1O
[10]
  inhibition: 10.9%

## C[C@@H]1O[C@@H](OC[C@H]2O[C@@H](Oc3c(-c4ccc(O)cc4)oc4cc(O)cc(O)c4c3=O)[C@H](O)[C@@H](O)[C@@H]2O)[C@H](O)[C@H](O)[C@H]1O
[5]
  inhibition: 16.1%

## O=c1cc(-c2ccc(O)c(O)c2)oc2cc(O[C@@H]3O[C@H](CO)[C@@H](O)[C@H](O)[C@H]3O)cc(O)c12
[11]
  inhibition: 27.4%

## C[C@@H]1O[C@@H](O[C@@H]2[C@@H](O)[C@H](OCCc3ccc(O)c(O)c3)O[C@H](CO)[C@H]2OC(=O)/C=C/c2ccc(O)c(O)c2)[C@H](O[C@@H]2OC[C@@H](O)[C@@H](O)[C@@H]2O)[C@H](O)[C@H]1O
[12]
  inhibition: 12%

## O=C(/C=C/c1ccc(O)c(O)c1)O[C@@H]1C[C@](O)(C(=O)O)C[C@@H](O)[C@H]1O
[9]
  inhibition: 7.78%

## O=c1c(O[C@@H]2O[C@H](CO)[C@@H](O)[C@H](O)[C@H]2O)c(-c2ccc(O)cc2)oc2cc(O)cc(O)c12
[11]
  inhibition: 24.2%

## C[C@@H]1O[C@@H](O[C@@H]2[C@@H](O)[C@H](OCCc3ccc(O)c(O)c3)O[C@H](CO[C@@H]3O[C@H](CO)[C@@H](O)[C@H](O)[C@H]3O)[C@H]2OC(=O)/C=C/c2ccc(O)c(O)c2)[C@H](O[C@@H]2OC[C@@H](O)[C@@H](O)[C@@H]2O)[C@H](O)[C@H]1O
[13]
  inhibition: 12.4%

## COc1cc(/C=C/C(=O)O[C@H]2[C@H](O[C@H]3O[C@H](C)[C@@H](O)[C@H](O)[C@@H]3O)[C@@H](O)[C@H](OCCc3ccc(O)c(OC)c3)O[C@@H]2CO[C@H]2OCC(O)(CO)[C@@H]2O)ccc1O (stereo partly specified)
[8]
  inhibition: 12.7%

## COc1cc(-c2oc3cc(O)cc(O)c3c(=O)c2O[C@@H]2O[C@H](CO[C@@H]3O[C@@H](C)[C@H](O)[C@@H](O)[C@H]3O)[C@@H](O)[C@H](O)[C@H]2O)ccc1O
[7]
  inhibition: 13.1%

## COc1ccc(CCO[C@@H]2O[C@H](CO[C@@H]3O[C@H](CO)[C@@H](O)[C@H](O)[C@H]3O)[C@@H](OC(=O)/C=C/c3ccc(O)c(OC)c3)[C@H](O[C@@H]3O[C@@H](C)[C@H](O)[C@@H](O)[C@H]3O[C@@H]3OC[C@@H](O)[C@@H](O)[C@@H]3O)[C@H]2O)cc1O
[14]
  inhibition: 13.2%

## C[N+]1(C)CCC[C@@H]1C(=O)[O-]
[15]
  inhibition: 11.1%

## COc1cc(C[C@@H]2CO[C@@H](c3ccc(O[C@H]4O[C@@H](CO)[C@H](O)[C@@H](O)[C@@H]4O)c(OC)c3)[C@@H]2CO)ccc1O
[3]
  inhibition: 17.7%

## C[C@@H]1O[C@@H](O[C@@H]2[C@@H](O)[C@H](OCCc3ccc(O)c(O)c3)O[C@H](CO)[C@H]2OC(=O)/C=C/c2ccc(O)c(O)c2)[C@H](O)[C@H](O)[C@H]1O
[7]
  inhibition: 25.8%

## COc1cc(/C=C/C(=O)O[C@H]2[C@H](O[C@@H]3O[C@@H](C)[C@H](O)[C@@H](O)[C@H]3O[C@@H]3OC[C@@H](O)[C@@H](O)[C@@H]3O)[C@@H](O)[C@H](OCCc3ccc(O)c(O)c3)O[C@@H]2CO[C@@H]2O[C@H](CO)[C@@H](O)[C@H](O)[C@H]2O)ccc1O
[13]
  inhibition: 15.5%

## COc1ccc(-c2cc(=O)c3c(OC)c(OC)c(OC)cc3o2)cc1
[9]
  inhibition: 3.23%

## O=C(/C=C/c1ccc(O)cc1)OC[C@H]1O[C@@H](Oc2c(-c3ccc(O)c(O)c3)oc3cc(O)cc(O)c3c2=O)[C@H](O)[C@@H](O)[C@@H]1O
[2]
  inhibition: 21.9%

## COc1cc(-c2oc3cc(O)cc(O)c3c(=O)c2O[C@@H]2O[C@H](CO)[C@@H](O)[C@H](O)[C@H]2O)ccc1O
[16]
  inhibition: 24.2%

## COc1cc(/C=C/C(=O)O[C@H]2[C@H](O[C@@H]3O[C@@H](C)[C@H](O)[C@@H](O)[C@H]3O[C@@H]3OC[C@@H](O)[C@@H](O)[C@@H]3O)[C@@H](O)[C@H](OCCc3ccc(O)c(OC)c3)O[C@@H]2CO)ccc1O
[8]
  inhibition: 17.3%

## C[C@@H]1O[C@@H](OC[C@H]2O[C@@H](Oc3c(-c4ccc(O)c(O)c4)oc4cc(O)cc(O)c4c3=O)[C@H](O)[C@@H](O)[C@@H]2O)[C@H](O)[C@H](O)[C@H]1O
[2]
  inhibition: 12.7%

## COc1ccc(CCO[C@@H]2O[C@H](CO)[C@@H](OC(=O)/C=C/c3ccc(O)c(OC)c3)[C@H](O[C@@H]3O[C@@H](C)[C@H](O)[C@@H](O)[C@H]3O)[C@H]2O)cc1O
[17]
  inhibition: 20.6%

## COc1cc(/C=C/C(=O)O)ccc1O
[14]
  inhibition: 6.68%

## COc1ccc(CCO[C@@H]2O[C@H](CO)[C@@H](OC(=O)/C=C/c3ccc(O)c(OC)c3)[C@H](O[C@@H]3O[C@@H](C)[C@H](O)[C@@H](O)[C@H]3O[C@@H]3OC[C@@H](O)[C@@H](O)[C@@H]3O)[C@H]2O)cc1O
[8]
  inhibition: 9.48%

## COc1ccc(-c2cc(=O)c3c(OC)c(O)c(OC)cc3o2)cc1
[18]
  inhibition: 4.24%

## COc1cc(-c2cc(=O)c3c(O)cc(O[C@@H]4O[C@H](COC(=O)/C=C/c5ccc(O)cc5)[C@@H](O)[C@H](OC(=O)/C=C/c5ccc(O)cc5)[C@H]4O)cc3o2)ccc1O
[12]
  inhibition: 15.6%

## COc1cc(-c2oc3cc(O)cc(O)c3c(=O)c2O[C@@H]2O[C@H](COC(C)=O)[C@@H](O)[C@H](O)[C@H]2O)ccc1O
[3]
  inhibition: 23.3%

## COc1cc(-c2cc(=O)c3c(O)cc(O)cc3o2)ccc1O
[19]
  inhibition: 16.4%

## O=C(O)CC(OC(=O)/C=C/c1ccc(O)c(O)c1)C(=O)O (stereo unspecified)
[5]
  inhibition: 4.62%

## COc1cc(/C=C/C(=O)O[C@H]2[C@H](O[C@@H]3O[C@@H](C)[C@H](O)[C@@H](O)[C@H]3O)[C@@H](O)[C@H](OCCc3ccc(O)c(O)c3)O[C@@H]2CO)ccc1O
[1]
  inhibition: 21.6%

## O=c1cc(-c2ccc(O)cc2)oc2cc(O)cc(O)c12
[20]
  inhibition: 14%
